This note sets out measurements from patent publication US10280160B2, “Phthalazinone compounds and methods for the treatment of cystic fibrosis” (FLATLEY DISCOVERY LAB, LLC, priority 2013, dated 2019).

Where only a bound is given, the exact number is not on record here.

Chain of human F508del CFTR (P13569 other isoform, or with tags, fused parts or gaps del F508-F508): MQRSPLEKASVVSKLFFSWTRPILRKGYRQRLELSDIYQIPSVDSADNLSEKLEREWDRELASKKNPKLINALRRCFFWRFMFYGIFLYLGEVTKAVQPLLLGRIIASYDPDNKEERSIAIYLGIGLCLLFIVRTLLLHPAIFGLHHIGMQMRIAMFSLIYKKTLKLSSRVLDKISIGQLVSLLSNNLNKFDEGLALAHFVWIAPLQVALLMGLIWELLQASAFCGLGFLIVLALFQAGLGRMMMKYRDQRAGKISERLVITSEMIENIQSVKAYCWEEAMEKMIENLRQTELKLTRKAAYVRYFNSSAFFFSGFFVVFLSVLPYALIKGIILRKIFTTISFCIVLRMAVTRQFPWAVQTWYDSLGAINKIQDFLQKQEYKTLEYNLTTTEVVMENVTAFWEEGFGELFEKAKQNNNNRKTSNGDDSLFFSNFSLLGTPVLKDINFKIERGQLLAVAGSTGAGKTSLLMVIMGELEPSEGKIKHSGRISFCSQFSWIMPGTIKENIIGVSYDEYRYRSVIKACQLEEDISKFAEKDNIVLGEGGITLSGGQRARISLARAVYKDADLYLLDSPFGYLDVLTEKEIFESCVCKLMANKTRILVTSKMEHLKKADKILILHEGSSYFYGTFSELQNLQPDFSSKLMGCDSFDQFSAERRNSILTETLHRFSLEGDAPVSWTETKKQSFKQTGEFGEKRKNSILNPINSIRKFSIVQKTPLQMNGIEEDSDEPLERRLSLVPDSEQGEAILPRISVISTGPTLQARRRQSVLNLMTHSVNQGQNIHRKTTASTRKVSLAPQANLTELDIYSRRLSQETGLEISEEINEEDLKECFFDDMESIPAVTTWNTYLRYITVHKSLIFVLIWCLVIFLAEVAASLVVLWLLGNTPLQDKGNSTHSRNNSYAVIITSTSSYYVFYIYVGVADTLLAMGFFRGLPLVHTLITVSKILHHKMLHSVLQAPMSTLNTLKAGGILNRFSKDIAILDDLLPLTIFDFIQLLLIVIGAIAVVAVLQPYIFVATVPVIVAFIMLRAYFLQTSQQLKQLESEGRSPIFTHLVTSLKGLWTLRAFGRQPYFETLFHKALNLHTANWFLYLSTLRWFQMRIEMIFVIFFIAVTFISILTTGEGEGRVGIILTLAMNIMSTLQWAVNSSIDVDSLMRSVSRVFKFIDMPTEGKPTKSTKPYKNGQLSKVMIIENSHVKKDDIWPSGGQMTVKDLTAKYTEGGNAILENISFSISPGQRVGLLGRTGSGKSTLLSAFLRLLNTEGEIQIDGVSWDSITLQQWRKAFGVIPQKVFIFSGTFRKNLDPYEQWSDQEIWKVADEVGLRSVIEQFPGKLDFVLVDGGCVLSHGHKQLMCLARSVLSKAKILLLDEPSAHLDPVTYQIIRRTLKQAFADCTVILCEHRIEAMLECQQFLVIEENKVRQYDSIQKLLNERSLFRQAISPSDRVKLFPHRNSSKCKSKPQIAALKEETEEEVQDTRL

For the test, the target named is human F508del CFTR (Homo sapiens (Human), UniProt P13569, DEL508-508). The test can be described thus: CFTR-YFP High Throughput Assay (YFP halide flux, FRT cells). The settings on record: EMax normalized to the positive control; FRT cells expressing human F508del CFTR and YFP; read-out: % Efficacy. The format is cell-based. How it is done:
Assays for Detecting and Measuring the Effect of Compounds on F508del-CFTR Channels CFTR-YFP Assay-CFTR Corrector Protocol:
This protocol is designed to selectively screen small molecule compounds for F508del CFTR corrector activities in the YFP (yellow fluorescent protein) flux assay. In this protocol, the cells are incubated with testing compounds for 24 hours, washed with PBS, stimulated with forskolin and a standard potentiator, and fluorescence in each plate well is measured kinetically read on a 384-well plate reader, such as the Hamamatsu FDSS-6000.
YFP fluorescence intensity values are acquired at high speed before and after iodide buffer is injected to the assay cells. Iodide enters the cells via active CFTR channels in the plasma membrane, and quenches the YFP fluorescence. The rate of fluorescence quenching is proportionate to the total CFTR activity in the cell membrane. F508del CFTR correctors increase the number of CFTR molecules in the testing cell plasma membrane, and thereby accelerate YFP quenching.
This method was initially developed for bench top plate readers (Galietta, J, Jayaraman, S and Verkman, A S. Cell-based assay for high-throughput quantitative screening of CFTR chloride transport agonists. Am. J. Physiol. Cell Physiol. (2001), 281: C173), and was adapted to the HTS format (Sui J, Cotard S, Andersen J, Zhu P, Staunton J, Lee M, Lin S. Optimization of a Yellow fluorescent protein-based iodide influx high-throughput screening assay for cystic fibrosis transmembrane conductance regulator (CFTR) modulators. Assay Drug Dev Technol. (2010), 8: 656-668).
Fisher Rat Thyroid (FRT) cells stably expressing both human F508del CFTR and a halide-sensitive yellow fluorescent protein (YFP-H148Q/I152L 25,22) (Galietta et al. Am. J. Physiol Cell Physiol 281(5), C1734, 2001) were cultured on plastic surface in Coon's modified Ham's F12 medium supplemented with FBS 10%, L-glutamine 2 mM, penicillin 100 U/ml, and streptomycin 100 μg/ml. G418 (0.75-1.0 mg/ml) and zeocin (3.2 ug/ml) were used for selection of FRT cells expressing F508del CFTR and YFP. For primary screening, FRT cells were plated into 384-well black wall, transparent bottom microtiter plates (Costar; Corning Inc.) at a cell density of 20,000-40,000 per well. Test compound was applied to the cells at varying concentrations ranging from 2 nM-40 μM in either a 2-fold or 3-fold dilution series. Cells were incubated in a cell culture incubator at 37° C. with 5% CO2 for 24-26 h. Assay plates were washed with DPBS media (Thermo, cat # SH30028.02) to remove unbound cells and compound. Stimulation media (25 μL) containing 20 μM Forskolin & 30 μM P3 [6-(Ethyl-phenyl-sulfonyl)-4-oxo-1,4-dihydro-quinoline-3-carboxylic acid 2-methoxy-benzylamide] in Hams F-12 coon's modified media was added to the plate wells and incubated at room temperature for 60-120 min. 25 μL of HEPES-PBS-I buffer (10 mM HEPES, 1 mM MgCl2, 3 mM KCl, 1 mM CaCl2, 150 mM NaI) was then added and fluorescence quench curves (Excitation 500 nm/Emission 540 nm; exposure 136 ms) were immediately recorded on an FDSS-6000 plate reader (Hamamatsu). Quench rates were derived from least squares fitting of the data as described by Sui et al (2010).
CFTR-YFP Assay-CFTR Potentiator Protocol:
This protocol is designed to selectively screen small molecule compounds for F508del CFTR potentiator activities in the YFP (yellow fluorescent protein) flux assay. Such compounds act acutely to stimulate CFTR already expressed on the membrane surface. In this protocol, the cells are incubated at 27° C. for 24 hours to homogeneously boost F508del CFTR expression in the cell membrane (low temperature correction), washed with PBS, treated with test compound, and CFTR activity is stimulated with forskolin for 1-2 hr. Measurement of ion flux is initiated by addition of iodide-containing buffer, and YFP quenching is kinetically recorded using a 384-well plate reader, such as the Hamamatsu FDSS-6000. […]
For the molecule `Cc1nc2ccc(N(C)C(=O)Cn3nc(-c4cccc(Cl)c4)c4ccccc4c3=O)cc2o1` [Example 1, 2-(4-(3-chlorophenyl)-1-oxophthalazin-2(1H)-yl)-N-methyl-N-(2-methylbenzo[d]oxazol-6-yl)acetamide], the Emax is more than 80%. Take `Cc1nc2ccc(N(C)C(=O)Cn3nc(-c4cccc(Cl)c4)c4ccc(OC5CCCCC5)cc4c3=O)cc2o1` [Example 26, 2-(4-(3-chlorophenyl)-7-(cyclohexyloxy)-1-oxophthalazin-2(1H)-yl)-N-methyl-N-(2-methylbenzo[d]oxazol-6-yl)acetamide]: the Emax was more than 80%.

Consider `Cc1nc2ccc(N(C(=O)Cn3nc(-c4cccc(F)c4)c4ccc(O)cc4c3=O)C3CC3)cc2o1` [Example 14, N-cyclopropyl-2-(4-(3-fluorophenyl)-7-hydroxy-1-oxophthalazin-2(1H)-yl)-N-(2-methylbenzo[d]oxazol-6-yl)acetamide], for which the Emax lay in the range of 30 to 80%. Consider `CCOc1cc2c(=O)n(CC(=O)N(C)c3ccc4nc(C)oc4c3)nc(-c3cccc(Cl)c3)c2cc1Cl` [Example 31, 2-(6-chloro-4-(3-chlorophenyl)-7-ethoxy-1-oxophthalazin-2(1H)-yl)-N-methyl-N-(2-methylbenzo[d]oxazol-6-yl)acetamide], for which the Emax was more than 80%.

Take `Cc1nc2ccc(N(C)C(=O)Cn3nc(-c4cccc(F)c4)c4ccc(OC5CCOCC5)cc4c3=O)cc2o1` [Example 27, 2-(4-(3-fluorophenyl)-1-oxo-7-((tetrahydro-2H-pyran-4-yl)oxy)phthalazin-2(1H)-yl)-N-methyl-N-(2-methylbenzo[d]oxazol-6-yl)acetamide]: the Emax is more than 80%.

Turning to `Cc1nc2ccc(N(C)C(=O)Cn3nc(-c4cccc(F)c4)c4ccccc4c3=O)cc2o1` [Example 2, 2-(4-(3-fluorophenyl)-1-oxophthalazin-2(1H)-yl)-N-methyl-N-(2-methylbenzo[d]oxazol-6-yl)acetamide], the Emax fell in the range of 30 to 80%.

On to `[2H]C([2H])([2H])N(C(=O)Cn1nc(-c2cccc(F)c2)c2ccc(OCC)cc2c1=O)c1ccc2nc(C)oc2c1` [Example 22, 2-(7-ethoxy-4-(3-fluorophenyl)-1-oxophthalazin-2(1H)-yl)-N-(methyl-d3)-N-(2-methylbenzo[d]oxazol-6-yl)acetamide], for which the Emax was more than 80%. With `[2H]C([2H])([2H])N(C(=O)Cn1nc(-c2cccc(Cl)c2)c2ccc(OC)cc2c1=O)c1ccc2nc(C)oc2c1` [Example 6, 2-(4-(3-chlorophenyl)-7-methoxy-1-oxophthalazin-2(1H)-yl)-N-(methyl-d3)-N-(2-methylbenzo[d]oxazol-6-yl)acetamide], the Emax was more than 80%. On to `Cc1nc2ccc(N(C)C(=O)Cn3nc(-c4cccc(F)c4)c4ccc(OC5CCCCC5)cc4c3=O)cc2o1` [Example 28, 2-(7-(cyclohexyloxy)-4-(3-fluorophenyl)-1-oxophthalazin-2(1H)-yl)-N-methyl-N-(2-methylbenzo[d]oxazol-6-yl)acetamide], for which the Emax was more than 80%. Take `CCOc1ccc2c(-c3cccc(Cl)c3)nn(CC(=O)N(C)c3ccc4nc(C)oc4c3)c(=O)c2c1` [Example 19, 2-(4-(3-chlorophenyl)-7-ethoxy-1-oxophthalazin-2(1H)-yl)-N-methyl-N-(2-methylbenzo[d]oxazol-6-yl)acetamide]: the Emax was more than 80%. `Cc1nc2ccc(N(C)C(=O)Cn3nc(-c4cccc(Cl)c4)c4ccc(OCC5CC5)cc4c3=O)cc2o1` [Example 24, 2-(4-(3-chlorophenyl)-7-(cyclopropylmethoxy)-1-oxophthalazin-2(1H)-yl)-N-methyl-N-(2-methylbenzo[d]oxazol-6-yl)acetamide]: the Emax was more than 80%. Take `Cc1nc2ccc(N(C(=O)Cn3nc(-c4cccc(Cl)c4)c4ccc(O)cc4c3=O)C3CC3)cc2o1` [Example 15, 2-(4-(3-chlorophenyl)-7-hydroxy-1-oxophthalazin-2(1H)-yl)-N-cyclopropyl-N-(2-methylbenzo[d]oxazol-6-yl)acetamide]: the Emax was more than 80%. Regarding `CCN(C(=O)Cn1nc(-c2cccc(F)c2)c2ccc(OC)cc2c1=O)c1ccc2nc(C)oc2c1` [Example 8, N-ethyl-2-(4-(3-fluorophenyl)-7-methoxy-1-oxophthalazin-2(1H)-yl)-N-(2-methylbenzo[d]oxazol-6-yl)acetamide], the Emax was more than 80%. Take `CCOc1ccc2c(-c3cccc(F)c3)nn(CC(=O)N(c3ccc4nc(C)oc4c3)C3CC3)c(=O)c2c1` [Example 21, N-cyclopropyl-2-(7-ethoxy-4-(3-fluorophenyl)-1-oxophthalazin-2(1H)-yl)-N-(2-methylbenzo[d]oxazol-6-yl)acetamide]: the Emax was more than 80%. Turning to `[2H]C([2H])(C)N(C(=O)Cn1nc(-c2cccc(Cl)c2)c2ccc(OC)cc2c1=O)c1ccc2nc(C)oc2c1` [Example 7, 2-(4-(3-chlorophenyl)-7-methoxy-1-oxophthalazin-2(1H)-yl)-N-(ethyl-1,1-d2)-N-(2-methylbenzo[d]oxazol-6-yl)acetamide], the Emax is more than 80%. `Cc1nc2ccc(N(C)C(=O)Cn3nc(-c4cccc(Cl)c4)c4ccc(O)cc4c3=O)cc2o1` [Example 16, 2-(4-(3-chlorophenyl)-7-hydroxy-1-oxophthalazin-2(1H)-yl)-N-methyl-N-(2-methylbenzo[d]oxazol-6-yl)acetamide]: the Emax is more than 80%. The result for `Cc1nc2ccc(N(C)C(=O)Cn3nc(-c4cccc(Cl)c4)c4ccc(OC(C)C)cc4c3=O)cc2o1` [Example 25, 2-(4-(3-chlorophenyl)-7-isopropoxy-1-oxophthalazin-2(1H)-yl)-N-methyl-N-(2-methylbenzo[d]oxazol-6-yl)acetamide] reads more than 80%; that for `[2H]C([2H])([2H])N(C(=O)Cn1nc(-c2cccc(Cl)c2)c2ccc(OCC3CC3)cc2c1=O)c1ccc2nc(C)oc2c1` [Example 23, 2-(4-(3-chlorophenyl)-7-(cyclopropylmethoxy)-1-oxophthalazin-2(1H)-yl)-N-(methyl-d3)-N-(2-methylbenzo[d]oxazol-6-yl)acetamide], 30 to 80%. Regarding `CCN(C(=O)Cn1nc(-c2cccc(Cl)c2)c2ccc(OC)cc2c1=O)c1ccc2nc(C)oc2c1` [Example 9, 2-(4-(3-chlorophenyl)-7-methoxy-1-oxophthalazin-2(1H)-yl)-N-ethyl-N-(2-methylbenzoyl[d]oxazol-6-yl)acetamide], the Emax is more than 80%. For the molecule `CCOc1ccc2c(-c3cccc(Cl)c3)nn(CC(=O)N(c3ccc4nc(C)oc4c3)C3CC3)c(=O)c2c1` [Example 18, 2-(4-(3-chlorophenyl)-7-ethoxy-1-oxophthalazin-2(1H)-yl)-N-cyclopropyl-N-(2-methylbenzo[d]oxazol-6-yl)acetamide], the Emax was more than 80%. As for `COc1cc2c(=O)n(CC(=O)N(C)c3ccc4nc(C)oc4c3)nc(-c3cccc(F)c3)c2cc1Cl` [Example 10, 2-(6-chloro-4-(3-fluorophenyl)-7-methoxy-1-oxophthalazin-2(1H)-yl)-N-methyl-N-(2-methylbenzo[d]oxazol-6-yl)acetamide], the Emax lay in the range of 30 to 80%. The value for `COc1ccc2c(-c3cccc(Cl)c3)nn(CC(=O)N(c3ccc4nc(C)oc4c3)C3CC3)c(=O)c2c1` [Example 5, 2-(4-(3-chlorophenyl)-7-methoxy-1-oxophthalazin-2(1H)-yl)-N-cyclopropyl-N-(2-methylbenzo[d]oxazol-6-yl)acetamide] was more than 80%.
